These results are taken from article PMC10878397, “Development of Potent Dual BET/HDAC Inhibitors via Pharmacophore Merging and Structure-Guided Optimization” (ACS Chemical Biology, 2024).

Series [1] has as its target T1, BRD4 BD2 (Homo sapiens, UniProt O60885). In words: NanoBRET target engagement assay (HEK293T). It counts as cell-based. Also noted: BRD4 bromodomains and full-length HDACs were obtained as plasmids cloned in-frame with a terminal NanoLuc fusion; host or cells: HEK293T. As to conditions: intact cells. How it is done: (§1) The assay was performed as described previously.[17],[59] In brief, BRD4 bromodomains and full-length HDACs were obtained as plasmids cloned in-frame with a terminal NanoLuc fusion (Promega). Plasmids were transfected into HEK293T cells using FuGENE HD (Promega, E2312), and proteins were allowed to express for 20 h. Serially diluted inhibitor and the corresponding NanoBRET Tracer (Promega) at a concentration determined previously as the tracer KD, app were pipetted into white 384-well plates (Greiner #781207) for BRD assays or white 96-well plates (Corning #3600) for HDAC using an Echo acoustic dispenser (Labcyte). The corresponding protein-transfected cells were added and reseeded at a density of 2 × 10^5 cells/mL after trypsinization and resuspended in Opti-MEM without phenol red (Life Technologies). The system was allowed to equilibrate for 2 h at 37 °C/5% CO2 prior to BRET measurements. To measure BRET, NanoBRET NanoGlo substrate + Extracellular NanoLuc Inhibitor (Promega, N2540) was added as per the manufacturer’s protocol, and filtered luminescence was measured on a PHERAstar plate reader (BMG Labtech) equipped with a luminescence filter pair (450 nm BP filter (donor) and 610 nm LP filter (acceptor)). For lysed-mode NanoBRET experiments, digitonin (Promega, #G9441) was added as per the manufacturer’s instructions to a final concentration of […].
Background: BRET reads energy transfer from a luciferase to a nearby fluorophore.

Series [2] deals with T2, BRD4 BD1 (Homo sapiens, UniProt O60885). In words: NanoBRET target engagement assay (HEK293T). It counts as cell-based. Also noted: BRD4 bromodomains and full-length HDACs were obtained as plasmids cloned in-frame with a terminal NanoLuc fusion; host or cells: HEK293T. The conditions noted are these: intact cells. As to the method: as §1
Another series deals with HDAC2 (Homo sapiens, UniProt Q92769). Kind of series: NanoBRET target engagement assay (HEK293T). Format: cell-based. Also on record: BRD4 bromodomains and full-length HDACs were obtained as plasmids cloned in-frame with a terminal NanoLuc fusion; host or cells: HEK293T. The conditions noted are these: intact cells. How it is done: (§2) The assay was performed as described previously.[17],[59] In brief, BRD4 bromodomains and full-length HDACs were obtained as plasmids cloned in-frame with a terminal NanoLuc fusion (Promega). Plasmids were transfected into HEK293T cells using FuGENE HD (Promega, E2312), and proteins were allowed to express for 20 h. […] The corresponding protein-transfected cells were added and reseeded at a density of 2 × 10^5 cells/mL after trypsinization and resuspended in Opti-MEM without phenol red (Life Technologies). The system was allowed to equilibrate for 2 h at 37 °C/5% CO2 prior to BRET measurements. […] For lysed-mode NanoBRET experiments, digitonin (Promega, #G9441) was added as per the manufacturer’s instructions to a final concentration of […].

The target of another series is HDAC1 (Homo sapiens, UniProt Q13547). In words: NanoBRET target engagement assay (HEK293T). It counts as cell-based. Also noted: BRD4 bromodomains and full-length HDACs were obtained as plasmids cloned in-frame with a terminal NanoLuc fusion; host or cells: HEK293T. How it is done:
as §2

Series [3] has as its target T1, BRD4 BD2. In words: DSF thermal shift assay. It counts as binding. Also on record: purchased in-house (SGC Frankfurt recombinant bromodomain DSF panel). How it is done: (§3) The effects of inhibitor binding on the apparent melting temperature of recombinant bromodomains were determined by DSF in a 96-well plate (Starlab) at a protein concentration of 2 μM with 10 μΜ compound in buffer containing 25 mM HEPES, pH 7.5, 150 mM NaCl, and 0.5 mM TCEP. […] Protein unfolding profiles were recorded using an MX3005P real-time qPCR instrument (Agilent; excitation/emission filters = 492/610 nm) while increasing the temperature from 25 to 95 °C at a heating rate of 3 °C/min. Tm values were calculated after fitting the fluorescence curves to the Boltzmann equation. Differences in melting temperature upon compound binding are given as ΔTm = Tm (protein with inhibitor) – Tm (protein with DMSO control). Measurements were performed in triplicates.

The target in series [4] is T2, BRD4 BD1. In words: DSF thermal shift assay. Format: binding. Also on record: purchased in-house (SGC Frankfurt recombinant bromodomain DSF panel). How it is done: as §3
In a further series the test system is PaTu8988T cells. In words: CellTiter-Glo cell viability assay. Format: cell-based. As to conditions: Homo sapiens, PaTu 8988t, 72 h; treatment for 3 days. As to the method: (§4) PDAC cell line PaTu8988T was obtained from ATCC and cultured in Dulbecco’s modified Eagle’s medium (DMEM) containing 10% FBS, 25 mM glucose, […], 1 mM sodium pyruvate, and 1% penicillin–streptomycin. Nut midline carcinoma cell line HCC2429 was kindly provided by Lead Discovery Center GmbH (Dortmund, Germany) and was cultured in RPMI1640 medium containing 10% FBS, 2 mM L-glutamine, and 1% penicillin–streptomycin. Cell line PaTu8988T was authenticated using the Multiplex human Cell line Authentication Test (MCA) by Multiplexion GmbH, and cell line HCC2429 was authenticated using short tandem repeat (STR) profiling.
(§5) The assays were performed using Promega’s CellTiter-Glo Luminescent Cell Viability Assay kit (Cat. #G7571). First, compounds dissolved in DMSO were printed in 96-well plates (Corning) by using a Tecan D300e digital dispenser. Then, cells were seeded into the compound-printed plates using a Thermo Multidrop reagent dispenser. 72 h later, one volume of diluted CellTiter-Glo reagent (1:4 dilution with PBS) was added to individual wells by using the Thermo Multidrop reagent dispenser again. Plates were shaken for 2 min and incubated for 10 min in the dark. Luminescent signals were read by using a Tecan Spark Multimode Microplate Reader. The values were normalized to the DMSO control wells and presented as a percentage of cell viability. Dose–response curves were drawn with GraphPad Prism 8.
Background: In ATP-based viability assays light output follows the ATP content of the culture.

A further series concerns HCC2429 cells. In words: CellTiter-Glo cell viability assay. As to conditions: Homo sapiens, HCC2429, 72 h; treatment for 3 days. It counts as cell-based. How it is done:
as §4, §5

Another series concerns the target BRD4 bromodomains (Homo sapiens, UniProt O60885). In words: NanoBRET target engagement assay, both bromodomains. As to conditions: NanoBRET. It counts as cell-based. How it is done:
as §1

For another series, the target named is HDAC3 (Homo sapiens, UniProt O15379). In words: NanoBRET target engagement assay (HEK293T). Also on record: BRD4 bromodomains and full-length HDACs were obtained as plasmids cloned in-frame with a terminal NanoLuc fusion; host or cells: HEK293T. The conditions noted are these: intact cells. It counts as cell-based. As to the method:
as §2

Details of series [5]: method as in PMID 30649740. The conditions noted are these: cited from earlier work.
Setting [6] is: 10 μM compound, 2 μM protein, read-out: DSF ΔTm BRD4 BD2.
Setting [7] is: 10 μM compound, 2 μM protein, read-out: DSF ΔTm BRD4 BD1.

What is called EC50 is the concentration at which the effect is half-maximal. The ΔTm is the shift of the melting midpoint relative to a reference. As a reminder, the IC50 is the point on the concentration scale where inhibition reaches its midpoint. A higher IC50 goes with lower potency.

Several values for one entry are separate records, joined by “and”; a condition that tells them apart may be missing. Equal entries are not always repeated. Where two headings read alike, the source gives them in different places.

Sequence of HDAC1 (Q13547 whole entry, the tested form may be a part): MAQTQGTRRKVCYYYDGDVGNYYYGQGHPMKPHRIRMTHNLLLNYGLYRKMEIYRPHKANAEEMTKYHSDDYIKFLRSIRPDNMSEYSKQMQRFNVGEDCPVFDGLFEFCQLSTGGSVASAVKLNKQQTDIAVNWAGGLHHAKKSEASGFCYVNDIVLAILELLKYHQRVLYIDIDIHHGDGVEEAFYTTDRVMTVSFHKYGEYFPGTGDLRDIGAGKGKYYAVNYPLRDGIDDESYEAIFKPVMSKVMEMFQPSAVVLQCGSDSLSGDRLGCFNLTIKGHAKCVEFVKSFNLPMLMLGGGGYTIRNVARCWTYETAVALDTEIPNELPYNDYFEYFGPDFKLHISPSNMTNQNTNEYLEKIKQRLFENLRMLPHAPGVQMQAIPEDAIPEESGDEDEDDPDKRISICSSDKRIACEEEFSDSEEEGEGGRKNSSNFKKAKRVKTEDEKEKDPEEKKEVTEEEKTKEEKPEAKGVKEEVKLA
Sequence of HDAC2 (Q92769 whole entry, the tested form may be a part): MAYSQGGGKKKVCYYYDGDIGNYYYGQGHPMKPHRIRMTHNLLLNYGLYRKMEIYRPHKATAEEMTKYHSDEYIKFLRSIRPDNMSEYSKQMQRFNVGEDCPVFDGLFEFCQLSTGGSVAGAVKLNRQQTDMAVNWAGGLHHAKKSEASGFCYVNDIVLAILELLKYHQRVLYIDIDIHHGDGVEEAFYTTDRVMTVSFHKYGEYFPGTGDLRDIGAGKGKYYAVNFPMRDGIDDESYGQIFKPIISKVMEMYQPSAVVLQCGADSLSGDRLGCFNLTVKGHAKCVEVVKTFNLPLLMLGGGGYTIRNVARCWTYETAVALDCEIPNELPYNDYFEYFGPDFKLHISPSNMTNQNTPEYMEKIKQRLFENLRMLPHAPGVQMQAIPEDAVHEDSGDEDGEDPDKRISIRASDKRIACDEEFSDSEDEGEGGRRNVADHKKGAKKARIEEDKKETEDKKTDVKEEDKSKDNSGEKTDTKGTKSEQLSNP
Sequence of HDAC3 (O15379 whole entry, the tested form may be a part): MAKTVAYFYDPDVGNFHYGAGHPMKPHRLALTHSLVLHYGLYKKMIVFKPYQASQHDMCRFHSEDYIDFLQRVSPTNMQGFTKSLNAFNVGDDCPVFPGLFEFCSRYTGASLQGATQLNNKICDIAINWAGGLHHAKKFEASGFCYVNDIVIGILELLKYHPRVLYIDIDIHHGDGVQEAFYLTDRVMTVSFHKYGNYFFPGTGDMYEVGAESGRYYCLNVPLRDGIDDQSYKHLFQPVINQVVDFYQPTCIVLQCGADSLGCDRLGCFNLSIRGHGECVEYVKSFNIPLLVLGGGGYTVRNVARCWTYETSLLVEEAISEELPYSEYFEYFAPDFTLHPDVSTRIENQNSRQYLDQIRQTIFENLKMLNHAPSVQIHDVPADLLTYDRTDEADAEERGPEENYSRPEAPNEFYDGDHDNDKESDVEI

Regarding `COc1cc(C(=O)Nc2ccccc2N)ccc1-c1cn(C)c(=O)c2[nH]ccc12` [NB470], the EC50 on BRD4 BD2 [1] is 230 ± 70 nM; at BRD4 BD1 [2] it was 390 ± 60 nM; at HDAC2, greater than 50000 nM; at HDAC1 (intact cells) it was greater than 50000 nM; on HDAC1 (lysed cells (digitonin)), greater than 50000 nM. Besides, the figures for the ΔTm at 10 µM on BRD4 BD2 [3] (setting [6]) and at BRD4 BD1 [4] (setting [7]) were 4.3 ± 0.3 °C and 3.8 ± 0.1 °C, respectively.
Take `Cn1cc(C(=O)Nc2ccc(C(=O)Nc3ccccc3N)cc2)c2cc[nH]c2c1=O` [NB480]: the EC50 on BRD4 BD2 [1] was found to be 2900 ± 200 nM; at BRD4 BD1 [2] it was 2600 ± 100 nM; at HDAC2, 3700 ± 2400 nM; on HDAC1 (intact cells) it was 2300 ± 600 nM. In addition, the ΔTm at 10 µM on BRD4 BD2 [3] (setting [6]) worked out at 1.9 ± 0.3 °C; at BRD4 BD1 [4] (setting [7]), 1.9 ± 0.2 °C.
On to `Cn1cc(-c2ccc(C(=O)Nc3ccccc3N)nn2)c2cc[nH]c2c1=O` [NB501], for which the EC50 at BRD4 BD2 [1] worked out at 290 ± 120 nM; at BRD4 BD1 [2], 390 ± 20 nM; on HDAC2 it was 4600 ± 600 nM; at HDAC1 (intact cells) it was 16800 ± 6700 nM. In addition, the IC50 amounted to 8500 ± 1300 nM with PaTu8988T cells and 540 ± 60 nM in the series with HCC2429 cells. In addition, at BRD4 bromodomains, the “fold reduced binding to BRD4 compared with NB500” value was “about 2 fold”. Besides, the ΔTm at 10 µM is 3.6 ± 0.2 °C on BRD4 BD2 [3] (read-out: DSF ΔTm BRD4 BD2, 10 μM compound, 2 μM protein) and 2.9 ± 0.3 °C on BRD4 BD1 [4] (read-out: DSF ΔTm BRD4 BD1, 10 μM compound, 2 μM protein).
In the case of `Cn1cc(-c2ccc(C(=O)Nc3ccc(F)cc3N)nc2)c2cc[nH]c2c1=O` [NB507], the EC50 at BRD4 BD2 [1] is 100 ± 10 nM; at BRD4 BD1 [2], 340 ± 100 nM; on HDAC2, 14200 ± 4500 nM; at HDAC3 it was greater than 50000 nM; on HDAC1 (intact cells), 36300 nM and 36000 nM; on HDAC1 (lysed cells (digitonin)), 8200 ± 2100 nM. Moreover, the IC50 in the series with PaTu8988T cells was found to be 5200 ± 900 nM; in the series with HCC2429 cells, 240 ± 20 nM.
In the case of `Cn1cc(-c2ccc(C(=O)Nc3cc(-c4ccco4)ccc3N)nc2)c2cc[nH]c2c1=O` [NB513], the EC50 was 310 ± 50 nM at BRD4 BD2 [1], 370 ± 50 nM at BRD4 BD1 [2], 2900 ± 1700 nM on HDAC2 and 1300 ± 1000 nM on HDAC1 (intact cells). The IC50 is 2600 ± 300 nM in the series with PaTu8988T cells and 320 ± 40 nM with HCC2429 cells.
Regarding `Cn1cc(-c2ccc(C(=O)Nc3cc(-c4cccs4)ccc3N)nc2)c2cc[nH]c2c1=O` [NB514], the EC50 at BRD4 BD2 [1] is 180 ± 40 nM; at BRD4 BD1 [2], 290 ± 50 nM; at HDAC2 it was 58 nM and 60 nM; on HDAC3, 11400 ± 6900 nM; on HDAC1 (intact cells), 140 ± 50 nM; at HDAC1 (lysed cells (digitonin)), 22 ± 8 nM. Further, the IC50 was found to be 4100 ± 700 nM with PaTu8988T cells and 550 ± 60 nM in the series with HCC2429 cells.
Turning to `O=C(CCCCCCC(=O)Nc1ccccc1)NO` [SAHA, suberoyl anilide hydroxamic acid], the metabolic half-life in [5] is 2 h.
